Reference: patent US12239714B2, “Phosphatidylserine-binding conjugates” (CANBAS CO., LTD., priority 2021, dated 2025)
“Also recorded” adds a separate entry of the source.

Columns and labels:
[1] = test system: CT-26 mouse colon cancer cell line; assay: Tumor growth curves of subcutaneously implanted CT-26 in syngeneic BALB/c mice (FIGS. 4A-4D); assay type: in vivo; conditions: for mouse body weight, compared with the triple drug combination: 100 μg/mouse iv added to Cisplatin+CBP501+anti-CTLA4, data not shown; for CT26 tumor growth, conjugate added to Cisplatin+CBP501+anti-CTLA4 treatment: 100 μg/mouse iv, day 2×2, day 3×1
Protocol: BALB/c mice were implanted subcutaneously with 5×10^5 cells mice colon cancer cell line, CT-26WT, at day −10 when the mice were at the age 6 weeks. Six mice made a group for each treatment when the average tumor size was 205 mm^3 (132-279 mm^3). Treatments were done as follows when the mice were at the age 8 weeks with body weight 19.5 to 24.5 g and tumor size were measured three times in a week.
Dosing schedule (“ip”: intraperitoneal injection; “iv”: intravenous injection): • Diphenhydramine (ip): 10 mg/kg (15 min before Cisplatin/CBP501 on day 1) • Cisplatin (iv): 4 mg/kg (day 1) • CBP501 (iv): 6 mg/kg (day 1) • Anti-CTLA4 antibody (ip) 200 μg/mouse (day2, 4) • TSA005,006 in saline (iv): 100 μg/mouse (day 2×2, day3×1) • TSA015 in HEPES (iv): 100 μg/mouse (day 2×2, day3×1) • Vehicle: saline (iv): 100 μL/mouse (day 2×2, day3×1) Distribution of the Cy5.5 Version of TSA006 (TSA013) in BALB/c Mouse. (FIG. 5)

[2] = test system: CT26 colon cancer cell line; assay: Syngeneic mice model, TSA005 compared to TSA009 (FIG. 2); assay type: in vivo, BALB/c mice; conditions: 100 μg i.v. twice on Day 3 and once on Day 4; one cycle
Protocol: (§1) All animal studies were conducted according to protocols approved by institutional animal care committee of CanBas Co., Ltd. Six-week-old female BALB/c mice (The Jackson Laboratories Japan, Inc., Kanagawa, Japan) were inoculated subcutaneously in a flank with a suspension of CT26WT cells (5×10^5 cells). Ten days later, the mice were apportioned into 3 groups (6 mice/group) and treatments were initiated on Day 1.
Cisplatin+CBP501+anti-CTLA-4 antibody: anti-CTLA4 antibody 200 μg intraperitoneal injection (i.p.) on Days 3 and 5. Cisplatin 4 mg/kg and CBP501 6 mg/kg i.v. on Day 2. Saline i.v. twice on Day 3 and once on Day 4.
Cisplatin+CBP501+anti-CTLA-4 antibody+TSA005: anti-CTLA4 antibody 200 μg i.p. on Days 3 and 5. Cisplatin 4 mg/kg and CBP501 6 mg/kg i.v. on Day 2. TSA005 100 μg i.v. twice on Day 3 and once on Day 4.
Cisplatin+CBP501+anti-CTLA-4 antibody+TSA009: anti-CTLA4 antibody 200 μg i.p. on Days 3 and 5. Cisplatin 4 mg/kg and CBP501 6 mg/kg i.v. on Day 2. […] 100 μg i.v. twice on Day 3 and once on Day 4.
Diphenhydramine 10 mg/kg was given i.p. 15 min before CBP501 or 5% Glucose treatment. The size of tumor was measured thrice weekly with a pair of calipers to calculate tumor volume by using the following formula: volume (mm^3)=[(width)2 (mm)×length (mm)]/2.

[3] = test system: CT26 colon cancer cell line; assay: Syngeneic mice model, TSA005 (FIG. 1): growth of subcutaneous CT26 tumor; assay type: in vivo, BALB/c mice
Protocol: as §1, with “later” for “later, the”, “5” for “3”, “(6-8” for “(6”, “day1.” for “Day 1.”
The first cycle of the treatments was on day 1 to 5 and the second cycle was on day 10 to 14 as follows.
Cisplatin: Intravenous injection (i.v.) of Cisplatin 4 mg/kg and 5% Glucose on Day 1 and 10. Saline i.v. on Days 2, 3, 11 and 12.
Cisplatin+CBP501: Cisplatin 4 mg/kg and CBP501 6 mg/kg i.v. on Day 1 and 10. Saline i.v. on Days 2, 3, 11 and 12.
Cisplatin+CBP501+anti-CTLA-4 antibody: anti-CTLA4 antibody 200 μg intraperitoneal injection (i.p.) on Days 1 and 5. Cisplatin 4 mg/kg and CBP501 6 mg/kg i.v. on Day 2.
Cisplatin+CBP501+anti-CTLA-4 antibody+TSA005: anti-CTLA4 antibody 200 μg i.p. on Days 1 and 5. Cisplatin 4 mg/kg and CBP501 6 mg/kg i.v. on Day 2. TSA005 100 μg i.v. twice on Day 3 and once on Day 4.
Diphenhydramine 10 mg/kg was given i.p. 15 min before CBP501 or 5% Glucose treatment. The size of tumor was measured thrice weekly with a pair of calipers to calculate tumor volume by using the following formula: volume (mm^3)=[(width)^2 (mm)×length (mm)]/2.
Colon cancer cells from the CT26 cell line were subcutaneously inoculated in BALB/c mice 5×10^5 cells/mouse. The treatment was initiated on day 1, when the tumor sizes of 6-8 mice per test group attained an average size of about 200 mm^3. A cycle of the treatment schedule, dose and the route of treatment are detailed below. […]

Substance | mouse body weight, compared with the triple drug combination [1] | CT26 tumor growth, conjugate added to Cisplatin+CBP501+anti-CTLA4 treatment [1] | CT26 subcutaneous tumor growth, conjugate added to CBP501+cisplatin+anti-CTLA4 antibody [2] | subcutaneous tumor growth, CBP501+cisplatin combination versus cisplatin alone ([3]; Cisplatin 4 mg/kg and CBP501 6 mg/kg i.v. Day 1 and 10, CT26 in BALB/c mice, acetate salt) | tumor growth, TSA005 added to the CBP501+cisplatin combination ([3]; TSA005 100 μg i.v. Days 2, 3, 11 and 12, two cycles) | anti-tumor activity of TSA005 in combination with the two-drug or three-drug treatment regimen ([3]; TSA005 100 μg i.v., with CBP501+cisplatin or CBP501+cisplatin+anti-CTLA-4 antibody)
(GEGKGGr)4-K2-K-Cys(MI-CL264)-NH2 [TSA006] | did not change the mouse body weight further | further tumor growth suppression; also recorded: further suppressed the tumor growth |  |  |  | 
(TLVSSLr)8-K4-K2-K-Cys(MI-CL264)-NH2 [TSA009] |  |  | not and deleterious effect |  |  | 
H-(D)p-benzoylphenylalanyl-(D)seryl-(D)tryptophanyl-(D)seryl-(D)pentafluorophenylalanyl-(D)cyclohexylalanyl-(D)arginyl-(D)arginyl- (D)arginyl-(D)glutaminyl-(D)arginyl-(D)arginine acetate salt [CBP501, reference compound] |  |  |  | suppressed subcutaneous tumor growth much better than cisplatin alone |  | 
(TLVSSLr)4-K2-K-Cys(MI-CL264)-NH2 [TSA005] | did not change the mouse body weight further | further tumor growth suppression; also recorded: further suppressed the tumor growth | suppressed CT26 subcutanous tumor growth more |  | further suppressed the tumor growth; also recorded: further reduced the growth of the tumor | enhanced anti-tumor activity; also recorded: reduced tumor growth further than the triple drug combination
